These compounds were tested against T1, human orexin type 2 receptor (Homo sapiens, UniProt O43614) (assay: Measurement of orexin type 2 receptor agonist activity (calcium fluorescence, Fluo-4 AM, FDSS)). Conditions: test compound 3 μM; CHO cells expressing human OX2 receptor; DMSO = 0%, orexin A (human) = 100%.
T1 construct: expressed in transfected cells
T1 sequence (O43614 1-444): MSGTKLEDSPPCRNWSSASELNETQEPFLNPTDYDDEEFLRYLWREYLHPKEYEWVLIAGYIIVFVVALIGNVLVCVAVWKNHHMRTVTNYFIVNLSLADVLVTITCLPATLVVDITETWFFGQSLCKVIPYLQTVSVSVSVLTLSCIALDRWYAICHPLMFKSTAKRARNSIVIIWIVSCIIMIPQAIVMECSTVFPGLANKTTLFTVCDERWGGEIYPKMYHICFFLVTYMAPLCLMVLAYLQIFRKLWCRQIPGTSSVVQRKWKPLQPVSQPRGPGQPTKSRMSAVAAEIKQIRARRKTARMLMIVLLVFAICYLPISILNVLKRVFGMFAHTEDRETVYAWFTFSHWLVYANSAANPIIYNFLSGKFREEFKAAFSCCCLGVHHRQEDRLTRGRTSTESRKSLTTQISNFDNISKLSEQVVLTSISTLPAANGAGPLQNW
Assay type: cell-based
How it was run: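 Agonist response scaled between vehicle (0%) and human orexin A at 10 nM final (100%), from 2-min kinetic Fluo-4 fluorescence reads. Stable hOX2R CHO-K1 clone, dye-loaded in HBSS/20 mM HEPES/0.1% BSA with 1.25 mM probenecid before compound addition.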

OX2R agonist activity (3 μM, %) [%]	Compound
84	CS(=O)(=O)NC[C@H]1CCN1C(=O)[C@@H]1C[C@H]1c1ccccc1-c1c(F)cccc1F [Example 370, N-({(2R)-1-[(1R,2R)-2-(2′,6′-difluoro[1,1′-biphenyl]-2-yl)cyclopropane-1-carbonyl]azetidin-2-yl}methyl)methanesulfonamide]
96	CS(=O)(=O)N[C@H]1CCCN(C(=O)C2(F)CC2c2ccccc2-c2c(F)cccc2F)C1 (stereo partly drawn) [Example 325, N-{(3S)-1-[(1R,2R)-2-(2′,6′-difluoro[1,1′-biphenyl]-2-yl)-1-fluorocyclopropane-1-carbonyl]piperidin-3-yl}methanesulfonamide, or N-{(3S)-1-[(1S,2S)-2-(2′,6′-difluoro[1,1′-biphenyl]-2-yl)-1-fluorocyclopropane-1-carbonyl]piperidin-3-yl}methanesulfonamide]
104	CCS(=O)(=O)NC1COCCN(C(=O)[C@@H]2C[C@H]2c2ccccc2-c2c(F)cccc2F)C1 (stereo partly drawn) [Example 294, N-{(6S)-4-[(1R,2R)-2-(2′,6′-difluoro [1,1′-biphenyl]-2-yl)cyclopropane-1-carbonyl]-1,4-oxazepan-6-yl}ethanesulfonamide, or N-{(6R)-4-[(1R,2R)-2-(2′,6′-difluoro[1,1′-biphenyl]-2-yl)cyclopropane-1-carbonyl]-1,4-oxazepan-6-yl}ethanesulfonamide]
99	C[C@H](NS(=O)(=O)C1CC1)[C@@H]1CCN1C(=O)[C@@H]1C[C@@]1(F)c1ccccc1-c1c(F)cccc1F [Example 387, N-[(1S)-1-{(2S)-1-[(1S,2S)-2-(2′,6′-difluoro[1,1′-biphenyl]-2-yl)-2-fluorocyclopropane-1-carbonyl]azetidin-2-yl}ethyl]cyclopropanesulfonamide]
72	CO[C@@H]1CN(C(=O)[C@@H]2C[C@@]2(F)c2ccccc2-c2c(F)cccc2F)[C@@H]1CNS(C)(=O)=O [Example 383, N-({(2R,3R)-1-[(1S,2S)-2-(2′,6′-difluoro[1,1′-biphenyl]-2-yl)-2-fluorocyclopropane-1-carbonyl]-3-methoxyazetidin-2-yl}methyl)methanesulfonamide]
98	CS(=O)(=O)NC[C@@H]1[C@H](F)CN1C(=O)[C@@H]1C[C@@]1(F)c1ccccc1-c1c(F)cccc1F [Example 390, N-({(2R,3R)-1-[(1S,2S)-2-(2′,6′-difluoro[1,1′-biphenyl]-2-yl)-2-fluorocyclopropane-1-carbonyl]-3-fluoroazetidin-2-yl}methyl)methanesulfonamide]
99	CC1C(C(=O)N2CC[C@H](NS(C)(=O)=O)C2)C1c1ccccc1-c1c(F)cccc1F (mixture of isomers) [Example 303, a mixture of N-{(3S)-1-[(1R,2R,3S)-2-(2′,6′-difluoro[1,1′-biphenyl]-2-yl)-3-methylcyclopropane-1-carbonyl]pyrrolidin-3-yl}methanesulfonamide and N-{(3S)-1-[(1S,2S,3R)-2-(2′,6′-difluoro[1,1′-biphenyl]-2-yl)-3-methylcyclopropane-1-carbonyl]pyrrolidin-3-yl}methanesulfonamide]
101	CC1C(NS(C)(=O)=O)CCN1C(=O)[C@@H]1C[C@H]1c1ccccc1-c1c(F)cccc1F (stereo partly drawn) [Example 297, N-{(2R,3R)-1-[(1R,2R)-2-(2′,6′-difluoro[1,1′-biphenyl]-2-yl)cyclopropane-1-carbonyl]-2-methylpyrrolidin-3-yl}methanesulfonamide, or N-{(2S,3S)-1-[(1R,2R)-2-(2′,6′-difluoro[1,1′-biphenyl]-2-yl)cyclopropane-1-carbonyl]-2-methylpyrrolidin-3-yl}methanesulfonamide]
94	CS(=O)(=O)N[C@H]1CCN(C(=O)C2C(c3ccccc3-c3c(F)cccc3F)C2(F)F)C1 (stereo partly drawn) [Example 328, N-{(3S)-1-[(1R,3R)-3-(2′,6′-difluoro[1,1′-biphenyl]-2-yl)-2,2-difluorocyclopropane-1-carbonyl]pyrrolidin-3-yl}methanesulfonamide, or N-{(3S)-1-[(1R,3R)-3-(2′,6′-difluoro[1,1′-biphenyl]-2-yl)-2,2-difluorocyclopropane-1-carbonyl]pyrrolidin-3-yl}methanesulfonamide]

The remaining lines, values behind:

Compound	OX2R agonist activity (3 μM, %) [%]
CS(=O)(=O)NC1CCCN(C(=O)C2CC2c2ccccc2-c2ccccc2F)CC1 (racemic) [Example 59, a mixture of rac-N-{(4R)-1-[(1R,2R)-2-(2′-fluoro[1,1′-biphenyl]-2-yl)cyclopropane-1-carbonyl]azepan-4-yl}methanesulfonamide and rac-N-{(4S)-1-[(1R,2R)-2-(2′-fluoro[1,1′-biphenyl]-2-yl)cyclopropane-1-carbonyl]azepan-4-yl}methanesulfonamide]	80
CS(=O)(=O)NC12CC1CN(C(=O)C1CC1c1ccccc1-c1c(F)cccc1F)C2 (stereo not drawn) [Example 272, N-{3-[2-(2′,6′-difluoro[1,1′-biphenyl]-2-yl)cyclopropane-1-carbonyl]-3-azabicyclo[3.1.0]hexan-1-yl}methanesulfonamide optical isomer]	99
Cc1ccccc1-c1ccccc1C1CC1C(=O)N1CCCC(NS(C)(=O)=O)CC1 (racemic) [Example 52, a mixture of rac-N-{(4R)-1-[(1R,2R)-2-(2′-methyl[1,1′-biphenyl]-2-yl)cyclopropane-1-carbonyl]azepan-4-yl}methanesulfonamide and rac-N-{(4S)-1-[(1R,2R)-2-(2′-methyl[1,1′-biphenyl]-2-yl)cyclopropane-1-carbonyl]azepan-4-yl}methanesulfonamide]	65
CS(=O)(=O)N[C@@H]1CN(C(=O)[C@@H]2C[C@H]2c2ccccc2-c2c(F)cccc2F)CC(F)(F)C1 [Example 271, N-{(3S)-1-[(1R,2R)-2-(2′,6′-difluoro[1,1′-biphenyl]-2-yl)cyclopropane-1-carbonyl]-5,5-difluoropiperidin-3-yl}methanesulfonamide]	87
CS(=O)(=O)N[C@H]1CCN(C(=O)C2CC2c2ccc(F)cc2-c2c(F)cccc2F)C1 (single isomer, unassigned) [Example 200, N-{(3S)-1-[(1R,2R)-2-(2′,5,6′-trifluoro[1,1′-biphenyl]-2-yl)cyclopropane-1-carbonyl]pyrrolidin-3-yl}methanesulfonamide, or N-{(3S)-1-[(1S,2S)-2-(2′,5,6′-trifluoro[1,1′-biphenyl]-2-yl)cyclopropane-1-carbonyl]pyrrolidin-3-yl}methanesulfonamide]	103
C[C@]1(NS(C)(=O)=O)CCN(C(=O)[C@@H]2C[C@H]2c2ccccc2-c2c(F)cccc2F)C1 (mixture of isomers) [Example 286, a mixture of N-{(3R)-1-[(1R,2R)-2-(2′,6′-difluoro[1,1′-biphenyl]-2-yl)cyclopropane-1-carbonyl]-3-methylpyrrolidin-3-yl}methanesulfonamide and N-{(3S)-1-[(1R,2R)-2-(2′,6′-difluoro[1,1′-biphenyl]-2-yl)cyclopropane-1-carbonyl]-3-methylpyrrolidin-3-yl}methanesulfonamide]	96
CS(=O)(=O)NC1CCN(C(=O)C2CC2c2sccc2-c2c(F)cccc2F)C1 (racemic) [Example 235, a mixture of rac-N-[(3R)-1-{(1R,2R)-2-[3-(2,6-difluorophenyl)thiophen-2-yl]cyclopropane-1-carbonyl}pyrrolidin-3-yl]methanesulfonamide and rac-N-[(3S)-1-{(1R,2R)-2-[3-(2,6-difluorophenyl)thiophen-2-yl]cyclopropane-1-carbonyl}pyrrolidin-3-yl]methanesulfonamide]	89
Cc1ccc(C2CC2C(=O)N2CCC(NS(C)(=O)=O)C2)c(-c2ccccc2F)c1 (racemic) [Example 209, a mixture of rac-N-{(3R)-1-[(1R,2R)-2-(2′-fluoro-5-methyl[1,1′-biphenyl]-2-yl)cyclopropane-1-carbonyl]pyrrolidin-3-yl}methanesulfonamide and rac-N-{(3S)-1-[(1R,2R)-2-(2′-fluoro-5-methyl[1,1′-biphenyl]-2-yl)cyclopropane-1-carbonyl]pyrrolidin-3-yl}methanesulfonamide]	95
CC1(C)C(C(=O)N2CC[C@H](NS(C)(=O)=O)C2)C1c1ccccc1-c1c(F)cccc1F (mixture of isomers) [Example 287, a mixture of N-{(3S)-1-[(1R,2R)-2-(2′,6′-difluoro[1,1′-biphenyl]-2-yl)-2,2-dimethylcyclopropane-1-carbonyl]pyrrolidin-3-yl}methanesulfonamide and N-{(3S)-1-[(1S,3S)-3-(2′,6′-difluoro[1,1′-biphenyl]-2-yl)-2,2-dimethylcyclopropane-1-carbonyl]pyrrolidin-3-yl}methanesulfonamide]	96
CN(C)S(=O)(=O)NCC1CN(C(=O)[C@@H]2C[C@H]2c2ccccc2-c2c(F)cccc2F)CCO1 (stereo in doubt) [Example 284, N′-({(2R)-4-[(1R,2R)-2-(2′,6′-difluoro[1,1′-biphenyl]-2-yl)cyclopropane-1-carbonyl]morpholin-2-yl}methyl)-N,N-dimethylsulfuric diamide]	94

Source: patent US20250250230A1, “HETEROCYCLIC COMPOUND” (TAKEDA PHARMACEUTICAL COMPANY LIMITED, priority 2022, published 2025)
